The source made the active and inactive calls. The calls are words filed in the database; no cut-off is given here.
Experiments:
[1] = test system: Radical scavenging activity; test: Hydroxyl radical scavenging activity of Cudriana tricuspidata extracts; assay type: functional
[2] = test system: HT-29; test: Cytotoxicity against human cancer HT29 cell line by MTT assay; assay type: functional; details: read-out: LD50 (the source's name)
[3] = test system: Radical scavenging activity; test: Superoxide radical scavenging activity of Cudriana tricuspidata extracts; assay type: functional, Maclura tricuspidata
[4] = test system: HL-60; test: Cytotoxic activity in HL60 by DNA fragmentation assay; assay type: functional, cell-based; details: Homo sapiens
[5] = test system: SK-OV-3; test: Cytotoxicity against human cancer SKOV3 cell line by MTT assay; assay type: functional; details: read-out: LD50 (the source's name)
[6] = test system: Radical scavenging activity; test: DPPH radical scavenging activity of Cudriana tricuspidata extracts; assay type: functional, Maclura tricuspidata
[7] = test system: A549; test: Cytotoxicity against human cancer A549 cell line by MTT assay; assay type: functional; details: read-out: LD50 (the source's name)
[8] = test system: HL-60; test: Cytotoxicity against human cancer HL60 cell line by MTT assay; assay type: functional; details: read-out: LD50 (the source's name)
[9] = test system: AGS; test: Cytotoxicity against human cancer AGS cell line by MTT assay; assay type: functional; details: read-out: LD50 (the source's name)

Compound | IC50 [1] | CC50 [2] | IC50 [3] | Activity [4] | CC50 [5] | IC50 [6] | CC50 [7] | CC50 [8] | CC50 [9]
C=CC(C)(C)c1c(O)cc(O)c2c(=O)c3cc(O)c4c(c3oc12)C=CC(C)(C)O4 | 55.5 µM | 46.3 µM | 64.5 µM | Active | 70.4 µM | > 200 µM | 61.9 µM | 35.9 µM | 44.7 µM
C=CC(C)(C)c1c(O)cc(O)c2c(=O)c3c(CC=C(C)C)c(O)c(O)cc3oc12 [CUDRATRICUSXANTHONE A] | 21.2 µM | 41.4 µM | 51 µM | Active | 43.2 µM | 21.3 µM | 45.8 µM | 32.8 µM | 32.8 µM
C=CC(C)(C)c1c(O)cc(O)c2c(=O)c3c(CC=C(C)C)c(OC)c(O)cc3oc12 [CUDRAXANTHONE C] | 24.3 µM | 50.7 µM | 85.1 µM | Active | 73.5 µM | > 200 µM | 61.7 µM | 40.8 µM | 49.5 µM
C=CC(C)(C)c1c(OC)cc(O)c2c(=O)c3c(CC=C(C)C)c(O)c(O)cc3oc12 [CUDRAXANTHONE D] | 25.2 µM | 20.7 µM | 92.8 µM | Active | 23.8 µM | 17.4 µM | 16.3 µM | 6.2 µM | 4.7 µM
C=CC(C)(C)c1c(O)cc2oc3c(CC=C(C)C)c(O)c(O)cc3c(=O)c2c1O [CUDRAXANTHONE L] | 50.3 µM | 11.4 µM | 23.6 µM | Active | 38 µM | 13.7 µM | 33.5 µM | 8.6 µM | 3.9 µM
CC(C)=CCc1c(O)c(O)cc2c(=O)c3c(O)c4c(cc3oc12)OC(C)C4(C)C (stereo not given) [CUDRAXANTHONE M] | 42.6 µM | 12.1 µM | 26 µM | Active | 14.6 µM | 10.4 µM | 11.8 µM | 8.2 µM | 4.1 µM
COc1cccc2c1C(=O)c1c(O)c3c(c(O)c1C2=O)C[C@@](O)(C(=O)CO)C[C@@H]3O[C@H]1C[C@H](N)[C@H](O)[C@H](C)O1 [DOXORUBICIN] |  | 1.8 µM |  |  | 14.2 µM |  | 1.3 µM | 1.1 µM | 1.2 µM
C=CC(C)(C)c1c(OC)cc(O)c2c(=O)c3ccc(O)c(O)c3oc12 [ISOCUDRANIAXANTHONE B] | 101 µM | 65 µM | 29.5 µM | Active | 71.3 µM | 31.8 µM | 57.8 µM | 45.2 µM | 43.9 µM
C=CC(C)(C)c1c(O)c(CC=C(C)C)c2oc3cc(O)c(O)cc3c(=O)c2c1O [MACLURAXANTHONE B] | 74.1 µM | 28 µM | 47.8 µM | Active | 23.1 µM | 15.4 µM | 25.8 µM | 29.5 µM | 15.2 µM
Cc1c(C)c2c(c(C)c1O)CCC(C)(C(=O)O)O2 (stereo not given) [TROLOX] | 48.2 µM |  | 33.6 µM |  |  | 10.6 µM |  |  | 
